Source: US20260317309A1, “N-HETEROCYLIC GPCR RECEPTOR AGONISTS, PHARMACEUTICAL COMPOSITIONS COMPRISING THE SAME, AND METHODS FOR THEIR USE” (Carmot Therapeutics, Inc., priority 2022, published 2026)

Target: T1, human GLP-1 receptor (Homo sapiens, UniProt P43220)
T1 construct: expressed in transfected cells
Experiment: GLP-1R cAMP assay (cAMP accumulation in CHO cells stably overexpressing the human GLP-1 receptor, HitHunter kit)
Format: cell-based
Settings: CHO cells stably overexpressing human GLP-1R, 30 min, 20-point dose response in triplicate
Method: CAMP accumulation was measured in Chinese hamster ovary (CHO) cells (10,000 cells/well) stably overexpressing the human GLP-1 receptor using the HitHunter CAMP Assay for Small Molecules Kit (Eurofins). Briefly, cells were grown in Ham's F12 Nutrient Mix with 10% FBS, and lifted with Cell Dissociation Buffer, Enzyme free, PBS based (ThermoFisher). Cells were pelleted, and resuspended in Hank's buffered saline solution with 10 mM HEPES, and 625 μM 3-isobutyl-1-methylxanthine. The anti-cAMP antibody reagent was then added to cells at a 1:2 ratio and 5 μL of mixture was seeded in 384-well small volume white assay plates, at 10,000 cells/well. Cells were then treated with 50 nL compound using an ECHO 550 acoustic dispenser (Labcyte) in a 20-point dose response format in triplicate for 30 min. Cells were then lysed, and detection reagents added according to the manufacturer's protocol. After overnight incubation, luminescence was measured using a Perkin Elmer Envision plate reader. Dose response curves were analyzed using GraphPad Prism 9.0.
In the Table, EC50 values are designated as follows: • A: 0 nM<EC50<0.1 nM; • B: 0.1 nM≤EC50<1.0 nM; • C: 1.0 nM≤EC50<10.0 nM; • D: 10.0 nM≤EC50<100 nM; • E: 100 nM≤EC50<500 nM; and • F: ≥500 nM

T1 sequence (P43220 24-463): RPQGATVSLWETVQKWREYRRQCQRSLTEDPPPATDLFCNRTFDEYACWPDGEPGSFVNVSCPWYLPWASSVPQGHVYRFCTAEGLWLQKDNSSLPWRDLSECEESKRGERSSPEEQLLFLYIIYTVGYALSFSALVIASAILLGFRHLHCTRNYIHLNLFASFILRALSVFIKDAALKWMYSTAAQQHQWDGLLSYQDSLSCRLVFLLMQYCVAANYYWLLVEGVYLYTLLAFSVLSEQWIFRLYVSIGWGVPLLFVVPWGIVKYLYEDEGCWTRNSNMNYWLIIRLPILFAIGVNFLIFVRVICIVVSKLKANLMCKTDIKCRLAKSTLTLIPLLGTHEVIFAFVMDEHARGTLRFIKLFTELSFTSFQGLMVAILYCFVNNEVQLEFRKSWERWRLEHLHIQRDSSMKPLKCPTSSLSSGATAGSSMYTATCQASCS

SMILES | EC50
C[C@H]1C[C@@H](Oc2ccnc(COc3ccc(C#N)cn3)n2)CCN1Cc1nc2ccc(C(=O)O)cc2n1C[C@@H]1CCO1 [Compound 567, 2-{[(2S,4S)-4-[(2-{[(5-Cyanopyridin-2-yl)oxy]methyl}pyrimidin-4-yl)oxy]-2-methylpiperidin-1-yl]methyl}-1-{[(2S)-oxetan-2-yl]methyl}-1H-1,3-benzodiazole-6-carboxylic acid] | 0.1 to 1 nM
C[C@H]1C[C@@H](Oc2ccnc(COc3ccc(F)cc3F)n2)CCN1Cc1nc2ccc(C(=O)O)cc2n1CC12CC(CO1)C2 [Compound 570, 2-{[(2S,4S)-4-({2-[(2,4-Difluorophenoxy)methyl]pyrimidin-4-yl}oxy)-2-methylpiperidin-1-yl]methyl}-1-({2-oxabicyclo[2.1.1]hexan-1-yl}methyl)-1H-1,3-benzodiazole-6-carboxylic acid] | 0.1 to 1 nM
N#Cc1ccc(OCc2nccc(OC3CCC4(CC3)CC4c3nc4ccc(C(=O)O)cc4n3C[C@@H]3CCO3)n2)c(F)c1 (stereo partly drawn) [Compound 571, 2-(6-((2-((4-Cyano-2-fluorophenoxy)methyl)pyrimidin-4-yl)oxy)spiro[2.5]octan-1-yl)-1-(((S)-oxetan-2-yl)methyl)-1H-benzo[d]imidazole-6-carboxylic acid] | 10 to 100 nM
C[C@H]1C[C@@H](Oc2ccnc(COc3ccc(F)cc3F)n2)CCN1Cc1nc2cc(F)c(C(=O)O)cc2n1C[C@@H]1CCO1 [Compound 572, 2-{[(2S,4S)-4-({2-[(2,4-di-fluorophenoxy)methyl]pyrimidin-4-yl}oxy)-2-methylpiperidin-1-yl]methyl}-5-fluoro-1-{[(2S)-oxetan-2-yl]methyl}-1H-1,3-benzodiazole-6-carboxylic acid] | 0.1 to 1 nM
C[C@H]1C[C@@H](Oc2ccnc(COc3ccc(F)cc3C#N)n2)CCN1Cc1nc2ccc(C(=O)O)c(F)c2n1C[C@@H]1CCO1 [Compound 573, 2-{[(2S,4S)-4-({2-[(2-cyano-4-fluorophenoxy)methyl]pyrimidin-4-yl}oxy)-2-methylpiperidin-1-yl]methyl}-7-fluoro-1-{[(2S)-oxetan-2-yl]methyl}-1H-1,3-benzodiazole-6-carboxylic acid] | < 0.1 nM
C[C@H]1C[C@@H](Oc2ccnc(COc3ccc(F)cc3C#N)n2)CCN1Cc1nc2cnc(C(=O)O)cc2n1C[C@@H]1CCO1 [Compound 574, 2-{[(2S,4S)-4-({2-[(2-cyano-4-fluorophenoxy)methyl]pyrimidin-4-yl}oxy)-2-methylpiperidin-1-yl]methyl}-1-{[(2S)-oxetan-2-yl]methyl}-1H-imidazo[4,5-c]pyridine-6-carboxylic acid] | 1 to 10 nM
C[C@H]1C[C@@H](Oc2ccnc(COc3ccc(F)cc3F)n2)CCN1Cc1nc2ccc(C(=O)O)cc2n1C[C@H]1CCOC1 [Compound 575, 2-{[(2S,4S)-4-({2-[(2,4-Difluorophenoxy)methyl]pyrimidin-4-yl}oxy)-2-methylpiperidin-1-yl]methyl}-1-{[(3R)-oxolan-3-yl]methyl}-1H-1,3-benzodiazole-6-carboxylic acid] | 0.1 to 1 nM
C[C@H]1C[C@@H](Oc2ccnc(COc3ccc(F)cc3F)n2)CCN1Cc1nc2c(F)cc(C(=O)O)cc2n1C[C@@H]1CCO1 [Compound 576, 2-{[(2S,4S)-4-({2-[(2,4-di-fluorophenoxy)methyl]pyrimidin-4-yl}oxy)-2-methylpiperidin-1-yl]methyl}-4-fluoro-1-{[(2S)-oxetan-2-yl]methyl}-1H-1,3-benzodiazole-6-carboxylic acid] | < 0.1 nM
CO[C@H]1COC[C@H]1n1c(CN2CC[C@H](Oc3ccnc(COc4ccc(F)cc4F)n3)C[C@@H]2C)nc2ccc(C(=O)O)cc21 [Compound 577, 2-(((2S,4S)-4-((2-((2,4-Difluorophenoxy)methyl)pyrimidin-4-yl)oxy)-2-methylpiperidin-1-yl)methyl)-1-((3R,4R)-4-methoxytetrahydrofuran-3-yl)-1H-benzo[d]imidazole-6-carboxylic acid] | 0.1 to 1 nM
C[C@H]1C[C@@H](Oc2ccnc(COc3ccc(C#N)cc3F)n2)CCN1Cc1nc2ccc(C(=O)O)cc2n1C[C@@H]1CCOC1 [Compound 578, 2-{[(2S,4S)-4-({2-[(4-cyano-2-fluorophenoxy)methyl]pyrimidin-4-yl}oxy)-2-methylpiperidin-1-yl]methyl}-1-{[(3S)-oxolan-3-yl]methyl}-1H-1,3-benzodiazole-6-carboxylic acid] | 0.1 to 1 nM
C[C@H]1C[C@@H](Oc2ccnc(COc3ccc(C#N)cc3F)n2)CCN1Cc1nc2ccc(C(=O)O)cc2n1C[C@@H]1CCCO1 [Compound 579, 2-{[(2S,4S)-4-({2-[(4-cyano-2-fluorophenoxy)methyl]pyrimidin-4-yl}oxy)-2-methylpiperidin-1-yl]methyl}-1-{[(2S)-oxolan-2-yl]methyl}-1H-1,3-benzodiazole-6-carboxylic acid] | 0.1 to 1 nM
N#Cc1ccc(OCc2nccc(OC3CCN(Cc4nc5cnc(C(=O)O)cc5n4C[C@@H]4CCO4)CC3)n2)c(F)c1 [Compound 580, 2-{[4-({2-[(4-Cyano-2-fluorophenoxy)methyl]pyrimidin-4-yl}oxy)piperidin-1-yl]methyl}-1-{[(2S)-oxetan-2-yl]methyl}-1H-imidazo[4,5-c]pyridine-6-carboxylic acid] | 1 to 10 nM
C[C@H]1C[C@@H](Oc2nc(COc3ccc(F)cc3F)ncc2F)CCN1Cc1nc2ccc(C(=O)O)cc2n1C[C@@H]1CCO1 [Compound 581, 2-{[(2S,4S)-4-({2-[(2,4-difluorophenoxy)methyl]-5-fluoropyrimidin-4-yl}oxy)-2-methylpiperidin-1-yl]methyl}-1-{[(2S)-oxetan-2-yl]methyl}-1H-1,3-benzodiazole-6-carboxylic acid] | < 0.1 nM
C[C@H]1C[C@@H](Oc2ccnc(COc3ccc(F)cc3F)n2)CCN1Cc1nc2ccc(C(=O)O)cc2n1CC1(F)COC1 [Compound 582, 2-{[(2S,4S)-4-({2-[(2,4-Difluorophenoxy)methyl]pyrimidin-4-yl}oxy)-2-methylpiperidin-1-yl]methyl}-1-[(3-fluorooxetan-3-yl)methyl]-1H-1,3-benzodiazole-6-carboxylic acid] | 0.1 to 1 nM
C[C@H]1C[C@@H](Oc2ccnc(COc3ccc(F)cc3F)n2)CCN1Cc1nc2ccc(C(=O)O)cc2n1CC1(C(F)F)COC1 [Compound 583, 1-{[3-(difluoromethyl)oxetan-3-yl]methyl}-2-{[(2S,4S)-4-({2-[(2,4-difluorophenoxy)methyl]pyrimidin-4-yl}oxy)-2-methylpiperidin-1-yl]methyl}-1H-1,3-benzodiazole-6-carboxylic acid] | 0.1 to 1 nM
C[C@H]1C[C@@H](Oc2ccnc(COc3ccc(F)cc3F)n2)CCN1Cc1nc2ccc(C(=O)O)cc2n1C[C@@H]1CCOC1 [Compound 584, 2-{[(2S,4S)-4-({2-[(2,4-Difluorophenoxy)methyl]pyrimidin-4-yl}oxy)-2-methylpiperidin-1-yl]methyl}-1-{[(3S)-oxolan-3-yl]methyl}-1H-1,3-benzodiazole-6-carboxylic acid] | 0.1 to 1 nM
Cc1cc2nc(CN3CC[C@H](Oc4ccnc(COc5ccc(F)cc5F)n4)C[C@@H]3C)n(C[C@@H]3CCO3)c2cc1C(=O)O [Compound 585, 2-{[(2S,4S)-4-({2-[(2,4-Difluorophenoxy)methyl]pyrimidin-4-yl}oxy)-2-methylpiperidin-1-yl]methyl}-5-methyl-1-{[(2S)-oxetan-2-yl]methyl}-1H-1,3-benzodiazole-6-carboxylic acid] | 0.1 to 1 nM
CC[C@@H]1C[C@H](Oc2ccnc(COc3ccc(C#N)cc3F)n2)CCN1Cc1nc2ccc(C(=O)O)cc2n1C[C@@H]1CCO1 [Compound 586, 2-{[(2R,4R)-4-({2-[(4-Cyano-2-fluorophenoxy)methyl]pyrimidin-4-yl}oxy)-2-ethylpiperidin-1-yl]methyl}-1-{[(2S)-oxetan-2-yl]methyl}-1H-1,3-benzodiazole-6-carboxylic acid] | 1 to 10 nM
CC[C@H]1C[C@@H](Oc2ccnc(COc3ccc(C#N)cc3F)n2)CCN1Cc1nc2ccc(C(=O)O)cc2n1C[C@@H]1CCO1 [Compound 587, 2-{[(2S,4S)-4-({2-[(4-Cyano-2-fluorophenoxy)methyl]pyrimidin-4-yl}oxy)-2-ethylpiperidin-1-yl]methyl}-1-{[(2S)-oxetan-2-yl]methyl}-1H-1,3-benzodiazole-6-carboxylic acid] | < 0.1 nM
C[C@H]1C[C@@H](Oc2ccnc(COc3ccc(F)cc3F)n2)CCN1Cc1nc2ccc(C(=O)O)cc2n1CCOCC(F)(F)F [Compound 588, 2-{[(2S,4S)-4-({2-[(2,4-Difluorophenoxy)methyl]pyrimidin-4-yl}oxy)-2-methylpiperidin-1-yl]methyl}-1-[2-(2,2,2-trifluoroethoxy)ethyl]-1H-1,3-benzodiazole-6-carboxylic acid] | < 0.1 nM
C[C@H]1C[C@@H](Oc2ccnc(COc3ccc(F)cc3F)n2)CCN1Cc1nc2ccc(C(=O)O)cc2n1C[C@@H]1CCCO1 [Compound 589, 2-{[(2S,4S)-4-({2-[(2,4-Difluorophenoxy)methyl]pyrimidin-4-yl}oxy)-2-methylpiperidin-1-yl]methyl}-1-{[(2S)-oxolan-2-yl]methyl}-1H-1,3-benzodiazole-6-carboxylic acid] | 0.1 to 1 nM
